From ChEMBL document CHEMBL1208757, “Furan based cyclic homo-oligopeptides bind G-quadruplex selectively and repress c-MYC transcription” (Bioorg Med Chem Lett, 2010)
Active and inactive are the calls of the source. The rule behind the calls is not given here.

How the values were obtained:
Nucleic Acid [1] = test: Binding affinity to 22 mer c-MYC DNA G-quadruplex assessed as induction of quadruplex folding at 5 to 10 uM by CD spectroscopy; type: nucleic-acid assay
Nucleic Acid [2] = test: Binding affinity to 22 mer c-MYC DNA G-quadruplex assessed as change in melting temperature at 0.2 uM by FRET assay; type: nucleic-acid assay
HeLa [3] = test: Induction of apoptosis in human HeLa cell line at 200 uM after 24 hrs by annexin V/conjugated 7-AAD nexin assay; type: functional
Nucleic Acid [4] = test: Binding affinity to 22 mer c-MYC G-quadruplex assessed as effect on ligand-telomeric complex formation by […]; type: nucleic-acid assay
Nucleic Acid [5] = test: Binding affinity to 22 mer c-MYC DNA G-quadruplex assessed as change in melting temperature at 0.8 uM by FRET assay; type: nucleic-acid assay
Nucleic Acid [6] = test: Binding affinity to 22 mer c-MYC G-quadruplex by isothermal titration calorimetry; type: nucleic-acid assay
Calf thymus DNA = test: Binding affinity to calf thymus DNA assessed as change in melting temperature at 0.2 to 1.6 uM by […]; type: nucleic-acid assay; conditions: Bos taurus
HeLa [7] = test: Cytotoxicity against human HeLa cells at 100 uM after 5 days by propidium iodide staining-based flow cytometry; type: functional, cell-based
Nucleic Acid [8] = test: Binding affinity to 22 mer c-MYC DNA G-quadruplex assessed as change in melting temperature at 1.2 uM by FRET assay; type: nucleic-acid assay
HeLa [9] = test: Downregulation of c-MYC gene expression in human HeLa cell line at 200 uM after 24 hrs by RT-PCR analysis; type: functional
Nucleic Acid [10] = test: Binding affinity to 22 mer c-MYC DNA G-quadruplex assessed as change in melting temperature at 0.4 uM by FRET assay; type: nucleic-acid assay
HeLa [11] = test: Downregulation of c-MYC gene expression in human HeLa cell line at 100 uM after 24 hrs by RT-PCR analysis; type: functional

Row | Activity (Nucleic Acid [1]) | Tm (Nucleic Acid [2]) | Kd (Nucleic Acid [4]) | Tm (Nucleic Acid [5]) | K (Nucleic Acid [6]) | Activity (Calf thymus DNA) | Tm (Nucleic Acid [8]) | Tm (Nucleic Acid [10]) | Structure (SMILES) | Activity (HeLa [3]) | Activity (HeLa [7]) | inhibition at 200 µM (HeLa [9]) | inhibition at 100 µM (HeLa [11])
1 | Active | 2 °C | 1200 nM | 6 °C | 3.21 ×10⁵ /M | inactive | 8 °C | 4 °C | NCC1=C2CNC(=O)C3=CC(CN)=C(CNC(=O)c4cc(CN)c(o4)CNC(=O)C(=C1)O2)O3.O=C(O)C(F)(F)F.O=C(O)C(F)(F)F.O=C(O)C(F)(F)F | 18% | inactive | 50% | –
2 | Active | 5 °C | 2100 nM | 15 °C | 5.7 ×10⁵ /M | inactive | 20 °C | 12 °C | NCCC(=O)NCC1=C2CNC(=O)C3=CC(CNC(=O)CCN)=C(CNC(=O)c4cc(CNC(=O)CCN)c(o4)CNC(=O)C(=C1)O2)O3.O=C(O)C(F)(F)F.O=C(O)C(F)(F)F.O=C(O)C(F)(F)F | 22% | inactive | – | 50%
